Assay results as given in publication PMC6274316 (Molecules, 2016).
Entries after “also recorded” stand apart in the source; their conditions may differ. Marks after values point to notes of the source that are not given here.

Columns and labels:
[1] = test system: ADP-induced platelet aggregation; assay: Inhibition of ADP-induced platelet aggregation in rats ex vivo (Born's method); parameters: species or system rat; conditions: for Platelet Aggregation (%): male Wistar rats, ADP 1.0 μM, mean ± SD n = 6; for antiplatelet effect (in words): rat ex vivo
Method: Two hours after administration, rats were anesthetized using sodium pentobarbital and blood samples collected from the abdominal aorta for platelet aggregation tests using Born’s method. ADP (1.0 μM, Sigma-Aldrich, Co., St. Louis, MO, USA) was used as agonist for platelet aggregation. Platelet aggregation was measured using a coagulation analyzer (NJ4, Beijing Precil Instrument Company, Beijing, China).

[2] = rat, 1000 ng/mL
Method: Blood samples (100 μL) were collected every 10 min over 120 min, mixed with methanol (950 μL), water (50 μL) and an internal standard (IS) solution (diazepam, 100 μL, 100 ng/mL) and centrifuged at low temperature at 13,000 rpm. […] This was carried out using an Agilent 1100 Series HPLC system (degasser, pump, auto sampler, and column oven, Agilent Technologies, Santa Clara, CA, USA) coupled to an AB SCIEX Qtrap 2000 mass spectrometer (Applied Biosystems Sciex, Ottawa, ON, Canada) with an ESI source operated in the positive ion mode. Data acquisition and integration were performed by Analyst software (version 1.3.2, Applied Biosystems Sciex, Ottawa, ON, Canada). Chromatography was performed on a ZORBAX Extend-C18 column (150 mm × 4.6 mm i.d., 5 μm, Agilent Technologies, Santa Clara, CA, USA) maintained at 40 °C using methanol and 0.1% aqueous formic acid (20:80, v/v) as mobile phase delivered at a flow rate of 1.0 mL/min. The injection volume was 20 μL. A 50:50 split of the column eluent was made by means of a T-piece. The mass spectrometer was operated at unit resolution for Q1 and Q3 in the multiple reaction monitoring (MRM) mode with a dwell time of 200 ms per MRM channel. […] QC samples were prepared independently at concentrations of 3, 30, and 800 ng/mL in the same way. […]

esterases = conditions: cited from earlier work
CYP2C19 = conditions: cited from earlier work
[3] = rat; cited from earlier work
[4] = ex vivo 2 h after oral dose 7.8 μmol/kg

SMILES | Platelet Aggregation (%) [1, 4] | antiplatelet effect (in words) ([1]; oral dose 7.8 μmol/kg) | melting point | also measured
Cl.[2H]C([2H])([2H])OC(=O)[C@H](c1ccccc1Cl)N1CCc2sc(OC(=O)c3ccccc3)cc2C1 [Compound 10k, (S)-5-(1-(2-Chlorophenyl)-2-(methoxy-d3)-2-oxoethyl)-4,5,6,7-tetrahydrothieno[3,2-c]pyridin-2-yl benzoate hydrochloride] | 43.6 ± 9.5% |  |  | 
Cl.[2H]C([2H])([2H])OC(=O)[C@H](c1ccccc1Cl)N1CCc2sc(OC(=O)C(C)C)cc2C1 [Compound 10d, (S)-5-(1-(2-Chlorophenyl)-2-(methoxy-d3)-2-oxoethyl)-4,5,6,7-tetrahydrothieno[3,2-c]pyridin-2-yl isobutyrate hydrochloride] | 36.3 ± 4.5% | potent antiplatelet activity | 146.7 to 149.9 °C | 
[2H]C([2H])([2H])OC(=O)[C@H](c1ccccc1Cl)N1CCC2SC(=O)C=C2C1 (stereo partly drawn) [Compound 9, Methyl-d3 (2S)-2-(2-chlorophenyl)-2-(2-oxo-2,6,7,7a-tetrahydrothieno[3,2-c]pyridin-5(4H)-yl)acetate] | 21.2 ± 7.6% | potent antiplatelet agent |  | 
[2H]C([2H])([2H])OC(=O)[C@H](c1ccccc1Cl)N1CCc2sc(OC(=O)C(C)(C)C)cc2C1 [Compound 10f, (S)-5-(1-(2-Chlorophenyl)-2-(methoxy-d3)-2-oxoethyl)-4,5,6,7-tetrahydrothieno[3,2-c]pyridin-2-yl pivalate] | 44.7 ± 4.1% |  | 105.4 to 107.1 °C | 
[2H]C([2H])([2H])OC(=O)[C@H](c1ccccc1Cl)N1CCc2sc(OC(C)=O)cc2C1 [Compound 10a, Methyl-d3 (S)-2-(2-acetoxy-6,7-dihydrothieno[3,2-c]pyridin-5(4H)-yl)-2-(2chlorophenyl)acetate] | 17.3 ± 8.2% | potent inhibitors; also recorded: potent antiplatelet activity |  | 
[2H]C([2H])([2H])OC(=O)[C@H](c1ccccc1Cl)N1CCc2sc(OC(=O)c3ccccc3C(F)(F)F)cc2C1 [Compound 10l, (S)-5-(1-(2-Chlorophenyl)-2-(methoxy-d3)-2-oxoethyl)-4,5,6,7-tetrahydrothieno[3,2-c]pyridin-2-yl 2-(trifluoromethyl)benzoate] | 49.2 ± 4.6% |  |  | 
Cl.[2H]C([2H])([2H])OC(=O)[C@H](c1ccccc1Cl)N1CCc2sc(OC(=O)CC)cc2C1 [Compound 10b, (S)-5-(1-(2-Chlorophenyl)-2-(methoxy-d3)-2-oxoethyl)-4,5,6,7-tetrahydrothieno[3,2-c]pyridin-2-yl propionate hydrochloride] | 24.9 ± 9.7% | potent antiplatelet activity |  | 
COC(=O)[C@H](c1ccccc1Cl)N1CCc2sccc2C1 [clopidogrel, Clopidogrel] | 59.8 ± 8.4% | low activity |  | Platelet Aggregation (%) ([1]; ex vivo 2 h after oral dose 78 μmol/kg (clopidogrel bisulfate, active control)): 15.8 ± 8.0 ^b %; antiplatelet effect (in words) ([1]; oral dose 78 μmol/kg): strong inhibitory effect; time after which concentration was below the limit of detection [2]: 70 min; proportion hydrolyzed by esterases to inactive clopidogrel acid (esterases): 85%; proportion of an oral dose metabolized to inactive metabolites (esterases): more than 90%; contribution of CYP2C19 to the first step (to 2-oxoclopidogrel) (CYP2C19): 44.9%; contribution of CYP2C19 to the second step (2-oxoclopidogrel to AM) (CYP2C19): 20.6%
[2H]C([2H])([2H])OC(=O)[C@H](c1ccccc1Cl)N1CCc2sc(OC(=O)CCCCCCCCCCC)cc2C1 [Compound 10i, (S)-5-(1-(2-Chlorophenyl)-2-(methoxy-d3)-2-oxoethyl)-4,5,6,7-tetrahydrothieno[3,2-c]pyridin-2-yl laurate] | 49.7 ± 4.0% |  | 35.8 to 37.6 °C | 
[2H]C([2H])([2H])OC(=O)[C@H](c1ccccc1Cl)N1CCc2sc(OC(=O)C3CC3)cc2C1 [Compound 10e, (S)-5-(1-(2-Chlorophenyl)-2-(methoxy-d3)-2-oxoethyl)-4,5,6,7-tetrahydrothieno[3,2-c]pyridin-2-yl cyclopro-panecarboxylate] | 24.6 ± 10.0% | anomalously potent; also recorded: potent antiplatelet activity |  | 
[2H]C([2H])([2H])OC(=O)[C@H](c1ccccc1Cl)N1CCc2sc(OC(=O)CCCCC)cc2C1 [Compound 10g, (S)-5-(1-(2-Chlorophenyl)-2-(methoxy-d3)-2-oxoethyl)-4,5,6,7-tetrahydrothieno[3,2-c]pyridin-2-yl hexanoate] | 35.2 ± 7.7% | potent antiplatelet activity | 49.4 to 52.7 °C | 
[2H]C([2H])([2H])OC(=O)[C@H](c1ccccc1Cl)N1CCc2sc(OC(=O)c3cccnc3)cc2C1 [Compound 10m, (S)-5-(1-(2-Chlorophenyl)-2-(methoxy-d3)-2-oxoethyl)-4,5,6,7-tetrahydrothieno[3,2-c]pyridin-2-yl nicotinate] | 37.4 ± 6.7% | strong potency; also recorded: potent antiplatelet activity | 92.1 to 94.8 °C | 
[2H]C([2H])([2H])OC(=O)[C@H](c1ccccc1Cl)N1CCc2sc(OC(=O)C(C)(C)CC)cc2C1 [Compound 10h, (S)-5-(1-(2-Chlorophenyl)-2-(methoxy-d3)-2-oxoethyl)-4,5,6,7-tetrahydrothieno[3,2-c]pyridin-2-yl 2,2-dimethylbutanoate] | 48.5 ± 6.7% |  | 99.4 to 100.3 °C | 
COC(=O)[C@H](c1ccccc1Cl)N1CCc2sc(OC(C)=O)cc2C1 [vicagrel, reference compound] | 20.0 ± 9.1% | potent inhibitors |  | level of AM relative to clopidogrel [3]: four-fold
[2H]C([2H])([2H])OC(=O)[C@H](c1ccccc1Cl)N1CCc2sc(OC(=O)CCC)cc2C1 [Compound 10c, (S)-5-(1-(2-Chlorophenyl)-2-(methoxy-d3)-2-oxoethyl)-4,5,6,7-tetrahydrothieno[3,2-c]pyridin-2-yl butyrate] | 29.9 ± 9.5% | potent antiplatelet activity |  | 
O=S(=O)(O)O.[2H]C([2H])([2H])OC(=O)[C@H](c1ccccc1Cl)N1CCc2sccc2C1 [Compound 8, Methyl-d3 (S)-2-(2-chlorophenyl)-2-(6,7-dihydrothieno[3,2-c]pyridin-5(4H)-yl)acetate bisulfate] | 36.6 ± 6.6% | potent inhibitors |  | 
[2H]C([2H])([2H])OC(=O)[C@H](c1ccccc1Cl)N1CCc2sc(OC(=O)C=Cc3ccccc3)cc2C1 [Compound 10j, (S)-5-(1-(2-Chlorophenyl)-2-(methoxy-d3)-2-oxoethyl)-4,5,6,7-tetrahydrothieno[3,2-c]pyridin-2-yl cinnamate] | 56.4 ± 6.9% |  | 121.7 to 123.1 °C | 
[2H]C([2H])([2H])OC(=O)[C@@H](c1ccccc1Cl)N1CCc2sc(OC(C)=O)cc2C1 [Compound R-10a, Methyl-d3 (R)-2-(2-acetoxy-6,7-dihydrothieno[3,2-c]pyridin-5(4H)-yl)-2-(2chlorophenyl)acetate] | 57.4 ± 5.0% | almost inactive |  | 
